# According to patent US10875829B1, “Azetidine derivatives useful as modulators of cortical catecholaminergic neurotransmission” (Integrative Research Laboratories Sweden AB, priority 2016, dated 2020):
# Where a name gives a salt, the structure may show the parent alone. Marks after values point to notes of the source that are not given here.
# Experiments:
# [1] = test system: non-pre-treated Sprague-Dawley rats; experiment: Locomotor activity in drug-naïve rats (behavioural activity, distance traveled 0-60 min); type: in vivo; conditions: for locomotor activity: recorded for 60 minutes, control saline, n=5
# Description: The effect of compounds in the present disclosure on locomotor activity in drug-naïve rats was also investigated. The animals were placed in the motility meters immediately after drug administration and locomotor activity was recorded for 60 minutes (counts/60 min±SEM). The results are presented as percent of control.
# Behavioural activity was measured using eight Digiscan activity monitors (RXYZM (16) TAO, Omnitech Electronics, Columbus, Ohio, USA), connected to an Omnitech Digiscan analyzer and an Apple Macintosh computer equipped with a digital interface board (NB D10-24, National Instruments, USA). Each activity monitor consisted of a quadratic metal frame (W×L=40 cm×40 cm) equipped with photo beam sensors. During measurements of behavioural activity, a rat was put in a transparent acrylic cage (W×L×H, 40×40×30 cm) which in turn was placed in the activity monitor. Each activity monitor was equipped with three rows of infrared photo beam sensors, each row consisting of 16 sensors. Two rows were placed along the front and the side of the floor of the cage, at a 90° angle, and the third row was placed 10 cm above the floor to measure vertical activity. Photo beam sensors were spaced 2.5 cm apart. Each activity monitor was fitted in an identical sound and light attenuating box containing a weak house light and a fan.
# The computer software was written using object oriented programming (LabVIEW™, National instruments, Austin, Tex., USA).
# Behavioural data from each activity monitor, representing the position (horizontal center of gravity and vertical activity) of the animal at each time, were recorded at a sampling frequency of 25 Hz and collected using a custom written LABView™ application. The data from each recording session were stored and analyzed with respect to distance traveled. Each behavioural recording session lasted 60 min, starting approximately 5 min after the injection of test compound.
# Compounds disclosed herein have been tested for effects on spontaneous locomotor activity in non-pre-treated Sprague-Dawley rats (based on accumulated distance traveled 0-60 min post dosing), and with doses up to 100 μmol/kg (s.c.).
# The animals were placed in the motility meters immediately after drug administration and locomotor activity was recorded for 60 minutes (counts/60 min). Results are presented as percent of control means. Statistical significance was assessed using Student's t-test (2 tailed) vs controls. * denotes p<0.05, ** p<0.01, *** p<0.001, n=5.
# [2] = target: Human 5-HT Transporter (SERT (h)) (Homo sapiens (Human), UniProt P31645); experiment: Radioligand binding assay, human 5-HT transporter ([3H]imipramine); conditions: for inhibition at 10 µM: 1 h, single concentration 1.0 E-5 M, duplicate, mean values; for IC50: dose-response curves
# Human 5-HT Transporter (SERT (h)), sequence (P31645 whole entry): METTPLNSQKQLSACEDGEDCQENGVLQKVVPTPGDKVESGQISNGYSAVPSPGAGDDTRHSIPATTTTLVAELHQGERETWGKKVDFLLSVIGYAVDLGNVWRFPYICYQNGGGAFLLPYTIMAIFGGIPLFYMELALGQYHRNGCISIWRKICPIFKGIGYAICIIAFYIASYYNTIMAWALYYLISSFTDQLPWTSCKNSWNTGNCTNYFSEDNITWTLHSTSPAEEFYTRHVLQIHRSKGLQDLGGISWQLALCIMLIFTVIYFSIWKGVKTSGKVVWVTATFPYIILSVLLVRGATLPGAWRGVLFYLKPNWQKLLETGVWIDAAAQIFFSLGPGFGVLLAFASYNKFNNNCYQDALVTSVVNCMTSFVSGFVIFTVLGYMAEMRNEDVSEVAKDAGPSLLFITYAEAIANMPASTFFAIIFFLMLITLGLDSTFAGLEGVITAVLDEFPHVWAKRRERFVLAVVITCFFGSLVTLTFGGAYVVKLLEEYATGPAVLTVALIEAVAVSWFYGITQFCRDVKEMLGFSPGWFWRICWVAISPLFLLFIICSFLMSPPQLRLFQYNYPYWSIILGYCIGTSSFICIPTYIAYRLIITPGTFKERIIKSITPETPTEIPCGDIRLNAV
# Description: (The measurement was performed as described in Tatsumi, M., Jansen, K., Blakely, R. D. and Richelson, E. (1999), Pharmacological profile of neuroleptics at human monoamine transporters, Eur. J. Pharmacol.
# Cell membrane homogenates (12 μg protein) are incubated for 60 min at 22° C. with 2 nM [3H]imipramine in the absence or presence of the test compound in a buffer containing 50 mM Tris-HCl (pH 7.4), 120 mM NaCl, 5 mM KCl and 0.1% BSA.
# Nonspecific binding is determined in the presence of 10 μM imipramine.
# Following incubation, the samples are filtered rapidly under vacuum through glass fiber filters (GF/B, Packard) presoaked with 0.3% PEI and rinsed several times with an ice-cold buffer containing 50 mM Tris-HCl and 150 mM NaCl using a 96-sample cell harvester (Unifilter, Packard). The filters are dried then counted for radioactivity in a scintillation counter (Topcount, Packard) using a scintillation cocktail (Microscint 0, Packard).
# The results are expressed as a percent inhibition of the control radioligand specific binding
# (§1) […] Reported values are mean values.
# [3] = target: Human Norepinephrine Transporter (NET (h)) (Homo sapiens (Human), UniProt P23975); experiment: Radioligand binding assay, human norepinephrine transporter ([3H]nisoxetine); conditions: for inhibition at 10 µM: 2 h, single concentration 1.0 E-5 M, duplicate, mean values; for IC50: dose-response curves
# Human Norepinephrine Transporter (NET (h)), sequence (P23975 whole entry): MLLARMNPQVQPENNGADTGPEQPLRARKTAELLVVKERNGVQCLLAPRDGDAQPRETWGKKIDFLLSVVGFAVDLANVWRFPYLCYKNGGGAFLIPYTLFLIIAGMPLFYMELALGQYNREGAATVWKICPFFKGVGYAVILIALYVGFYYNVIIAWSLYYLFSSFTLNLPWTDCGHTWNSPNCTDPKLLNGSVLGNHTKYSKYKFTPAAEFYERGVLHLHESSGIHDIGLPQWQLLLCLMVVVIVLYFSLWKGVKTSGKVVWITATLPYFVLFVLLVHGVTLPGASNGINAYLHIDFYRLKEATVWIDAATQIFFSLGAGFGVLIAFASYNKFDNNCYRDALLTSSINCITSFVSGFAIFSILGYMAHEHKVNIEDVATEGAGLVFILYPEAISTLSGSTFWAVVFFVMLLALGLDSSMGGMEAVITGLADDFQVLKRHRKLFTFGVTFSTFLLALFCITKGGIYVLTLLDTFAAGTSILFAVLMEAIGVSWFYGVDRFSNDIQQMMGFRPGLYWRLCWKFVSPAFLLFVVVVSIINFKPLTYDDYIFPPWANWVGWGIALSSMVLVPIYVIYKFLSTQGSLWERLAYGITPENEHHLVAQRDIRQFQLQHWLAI
# Description: (The measurement was performed as described in Pacholczyk, T., Blakely, R. D. and Amara, S. G. (1991), Expression cloning of a cocaine- and antidepressant-sensitive human noradrenaline transporter, Nature, 350: 350)
# (§2) Cell membrane homogenates (20 μg protein) are incubated for 120 min at 4° C. with 1 nM [3H]nisoxetine in the absence or presence of the test compound in a buffer containing 50 mM Tris-HCl (pH 7.4), 120 mM NaCl and 5 mM KCl. Nonspecific binding is determined in the presence of 1 μM desipramine. Following incubation, the samples are filtered rapidly under vacuum through glass fiber filters (GF/B, Packard) presoaked with 0.3% PEI and rinsed several times with ice-cold 50 mM Tris-HCl using a 96-sample cell harvester (Unifilter, Packard). The filters are dried then counted for radioactivity in a scintillation counter (Topcount, Packard) using a scintillation cocktail (Microscint 0, Packard).
# (§3) The results are expressed as a percent inhibition of the control radioligand specific binding.
# as §1
# [4] = target: Human Dopamine Transporter (DAT (h)) (Homo sapiens (Human), UniProt Q01959); experiment: Radioligand binding assay, human dopamine transporter ([3H]BTCP); conditions: for inhibition at 10 µM: 2 h, single concentration 1.0 E-5 M, duplicate, mean values; for IC50: dose-response curves
# Human Dopamine Transporter (DAT (h)), sequence (Q01959 whole entry): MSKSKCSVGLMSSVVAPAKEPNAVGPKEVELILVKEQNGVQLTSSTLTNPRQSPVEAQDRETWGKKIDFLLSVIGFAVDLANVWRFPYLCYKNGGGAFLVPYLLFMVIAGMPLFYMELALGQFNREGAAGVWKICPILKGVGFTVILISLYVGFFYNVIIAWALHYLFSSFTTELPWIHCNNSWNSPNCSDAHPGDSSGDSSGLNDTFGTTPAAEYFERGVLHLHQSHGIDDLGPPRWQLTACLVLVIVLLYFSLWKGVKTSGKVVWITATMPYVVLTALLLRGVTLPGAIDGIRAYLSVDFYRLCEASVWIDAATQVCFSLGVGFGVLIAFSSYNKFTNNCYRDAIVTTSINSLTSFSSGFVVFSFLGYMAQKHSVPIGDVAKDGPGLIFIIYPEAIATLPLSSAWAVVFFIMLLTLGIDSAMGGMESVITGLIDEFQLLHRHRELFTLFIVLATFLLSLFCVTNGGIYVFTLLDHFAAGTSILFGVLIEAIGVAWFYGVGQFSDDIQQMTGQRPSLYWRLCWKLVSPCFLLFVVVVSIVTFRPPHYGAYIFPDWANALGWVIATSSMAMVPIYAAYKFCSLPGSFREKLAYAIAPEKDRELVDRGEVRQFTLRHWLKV
# Description: (The measurement was performed as described in Pristuba, Z. B., Wilson, J. M., Hoffman, B. J., Kish, S. J. and Nisnik, H. B. (1994), Pharmacological heterogeneity of the cloned and native human dopamine transporter: disassociation of [3H]WIN 35,428 and [3H]GBR 12,935 binding, Mol. Pharmacol., 45: 125)
# Cell membrane homogenates (20 μg protein) are incubated for 120 min at 4° C. with 4 nM
# as §2, with “[3H]BTCP” for “Cell membrane homogenates (20 μg protein) are incubated for 120 min at 4° C. with 1 nM [3H]nisoxetine”, “7.4) and 100” for “7.4), 120”, “NaCl.” for “NaCl and 5 mM KCl.”, “10” for “1”, “BTCP.” for “desipramine.”
# as §3, §1
# [5] = at the highest tested dose (100 μmol/kg s.c.)
# [6] = ratio of IC50 values of Table 6
compound,measurement,setting,value
"Fc1cccc(OC2CNC2)c1F [Example 1A, 3-(2,3-difluorophenoxy)azetidine hydrochloric acid salt]",locomotor activity,[1]; 11 μmol/kg s.c.,135 ± 17 % of control means
same,locomotor activity,[1]; 33 μmol/kg s.c.,163 ± 17* % of control means
same,locomotor activity,[1]; 100 μmol/kg s.c.,121 ± 23 % of control means
same,inhibition at 10 µM,[2],59%
same,IC50,[2],34 µM
same,inhibition at 10 µM,[3],37%
same,IC50,[3],79 µM
same,inhibition at 10 µM,[4],49%
same,IC50,[4],21 µM
"Fc1cc(F)c(F)c(OC2CNC2)c1 [Example 2, 3-(2,3,5-trifluorophenoxy)azetidine hydrochloric acid salt]",locomotor activity,[1]; 11 μmol/kg s.c.,66 ± 8** % of control means
same,locomotor activity,[1]; 33 μmol/kg s.c.,57 ± 5*** % of control means
same,locomotor activity,[1]; 100 μmol/kg s.c.,21 ± 5*** % of control means
same,effect on locomotor activity (in words),"[1]; at all tested doses (11, 33, 100 μmol/kg s.c.)",significant reduction
same,inhibition at 10 µM,[2],12%
same,inhibition at 10 µM,[3],25%
same,inhibition at 10 µM,[4],12%
"Fc1cc(F)c(F)c(OC2CNC2)c1F [Example 3, 3-(2,3,5,6-tetrafluorophenoxy)-azetidine hydrochloric acid salt]",locomotor activity,[1]; 11 μmol/kg s.c.,114 ± 18 % of control means
same,locomotor activity,[1]; 33 μmol/kg s.c.,71 ± 26 % of control means
same,locomotor activity,[1]; 100 μmol/kg s.c.,44 ± 8* % of control means
same,effect on locomotor activity (in words),"[1]; at the two highest doses (33, 100 μmol/kg s.c.)",significant reduction
same,inhibition at 10 µM,[2],11%
same,inhibition at 10 µM,[3],25%
same,inhibition at 10 µM,[4],10%
"Fc1ccc(F)c(OC2CNC2)c1F [Example 20, 3-(2,3,6-trifluorophenoxy)azetidine hydrochloric acid salt]",inhibition at 10 µM,[2],6%
same,inhibition at 10 µM,[3],10%
same,inhibition at 10 µM,[4],25%
"CCN1CC(Oc2c(F)c(F)cc(F)c2F)C1 [Example 39, 1-ethyl-3-(2,3,5,6-tetrafluorophenoxy)azetidine hydrochloric acid salt]",locomotor activity,[1]; 11 μmol/kg s.c.,132 ± 14 % of control means
same,locomotor activity,[1]; 33 μmol/kg s.c.,103 ± 18 % of control means
same,locomotor activity,[1]; 100 μmol/kg s.c.,78 ± 19 % of control means
same,effect on locomotor activity (in words),[1]; [5],significant reduction
same,inhibition at 10 µM,[2],1.5%
same,inhibition at 10 µM,[3],11%
same,inhibition at 10 µM,[4],17%
"Fc1cc(F)cc(OC2CNC2)c1.O=C(O)C(O)C(O)C(=O)O [Example 52B, 3-(3,5-difluorophenoxy)azetidine (+)-tartaric acid salt]",locomotor activity,[1]; 11 μmol/kg s.c.,93 ± 15 % of control means
same,locomotor activity,[1]; 33 μmol/kg s.c.,30 ± 5* % of control means
same,locomotor activity,[1]; 100 μmol/kg s.c.,46 ± 8 % of control means
"Fc1cc(F)cc(OC2CNC2)c1 [Example 52C, 3-(3,5-difluorophenoxy)azetidine hydrochloric acid salt]",locomotor activity,[1]; 11 μmol/kg s.c.,128 ± 25 % of control means
same,locomotor activity,[1]; 33 μmol/kg s.c.,74 ± 24 % of control means
same,locomotor activity,[1]; 100 μmol/kg s.c.,73 ± 15 % of control means
same,inhibition at 10 µM,[2],29%
same,inhibition at 10 µM,[3],25%
same,inhibition at 10 µM,[4],25%
"Clc1ccc(OC2CNC2)cc1Cl [Reference Compound, 3-(3,4-dichlorophenoxy)azetidine hydrochloric acid salt, reference compound]",locomotor activity,[1]; 11 μmol/kg s.c.,132 ± 10 % of control means
same,locomotor activity,[1]; 33 μmol/kg s.c.,108 ± 23 % of control means
same,locomotor activity,[1]; 100 μmol/kg s.c.,323 ± 50** % of control means
same,effect on locomotor activity (in words),[1]; [5],significant increase
same,inhibition at 10 µM,[2],92%
same,IC50,[2],1.3 µM
same,fold more potent than Example 1A at SERT,[2]; [6],26 fold
same,inhibition at 10 µM,[3],84%
same,IC50,[3],2.2 µM
same,fold more potent than Example 1A at NET,[3]; [6],36 fold
same,inhibition at 10 µM,[4],79%
same,IC50,[4],3.5 µM
same,fold more potent than Example 1A at DAT,[4]; [6],6 fold
